Each block holds one compound with its values, some of them ahead of it. Active and inactive are the calls of the source.
Columns and labels:
[1] = biological target: Peroxisome proliferator-activated receptor gamma/Nuclear receptor coactivator 3 (Homo sapiens, UniProt P37231); assay: TR-FRET dose response biochemical High Throughput Screening assay for agonists of the steroid receptor coactivator 3 (SRC-3) recruitment by the peroxisome proliferator-activated receptor gamma (PPAR gamma): non-selective agonists. [Related pubchem assays: 1301 (Confirmation screen.), 1048 (Primary screen.)]; format: functional
Chain of Peroxisome proliferator-activated receptor gamma/Nuclear receptor coactivator 3 (P37231 whole entry): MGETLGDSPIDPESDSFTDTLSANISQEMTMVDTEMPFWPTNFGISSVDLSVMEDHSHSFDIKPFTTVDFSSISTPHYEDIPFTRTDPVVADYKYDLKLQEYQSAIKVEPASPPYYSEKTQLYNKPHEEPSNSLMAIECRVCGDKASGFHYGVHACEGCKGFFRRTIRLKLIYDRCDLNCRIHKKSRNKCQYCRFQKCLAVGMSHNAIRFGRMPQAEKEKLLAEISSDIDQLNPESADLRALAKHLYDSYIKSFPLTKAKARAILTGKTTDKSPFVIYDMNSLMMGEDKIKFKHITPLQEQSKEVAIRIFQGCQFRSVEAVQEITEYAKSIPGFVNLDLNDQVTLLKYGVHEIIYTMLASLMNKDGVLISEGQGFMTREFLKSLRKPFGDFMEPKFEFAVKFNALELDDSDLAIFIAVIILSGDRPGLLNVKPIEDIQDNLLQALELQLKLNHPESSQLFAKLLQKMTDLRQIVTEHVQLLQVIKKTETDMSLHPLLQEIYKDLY
Chain of Peroxisome proliferator-activated receptor gamma/Nuclear receptor coactivator 3 (Q9Y6Q9 whole entry, further chain): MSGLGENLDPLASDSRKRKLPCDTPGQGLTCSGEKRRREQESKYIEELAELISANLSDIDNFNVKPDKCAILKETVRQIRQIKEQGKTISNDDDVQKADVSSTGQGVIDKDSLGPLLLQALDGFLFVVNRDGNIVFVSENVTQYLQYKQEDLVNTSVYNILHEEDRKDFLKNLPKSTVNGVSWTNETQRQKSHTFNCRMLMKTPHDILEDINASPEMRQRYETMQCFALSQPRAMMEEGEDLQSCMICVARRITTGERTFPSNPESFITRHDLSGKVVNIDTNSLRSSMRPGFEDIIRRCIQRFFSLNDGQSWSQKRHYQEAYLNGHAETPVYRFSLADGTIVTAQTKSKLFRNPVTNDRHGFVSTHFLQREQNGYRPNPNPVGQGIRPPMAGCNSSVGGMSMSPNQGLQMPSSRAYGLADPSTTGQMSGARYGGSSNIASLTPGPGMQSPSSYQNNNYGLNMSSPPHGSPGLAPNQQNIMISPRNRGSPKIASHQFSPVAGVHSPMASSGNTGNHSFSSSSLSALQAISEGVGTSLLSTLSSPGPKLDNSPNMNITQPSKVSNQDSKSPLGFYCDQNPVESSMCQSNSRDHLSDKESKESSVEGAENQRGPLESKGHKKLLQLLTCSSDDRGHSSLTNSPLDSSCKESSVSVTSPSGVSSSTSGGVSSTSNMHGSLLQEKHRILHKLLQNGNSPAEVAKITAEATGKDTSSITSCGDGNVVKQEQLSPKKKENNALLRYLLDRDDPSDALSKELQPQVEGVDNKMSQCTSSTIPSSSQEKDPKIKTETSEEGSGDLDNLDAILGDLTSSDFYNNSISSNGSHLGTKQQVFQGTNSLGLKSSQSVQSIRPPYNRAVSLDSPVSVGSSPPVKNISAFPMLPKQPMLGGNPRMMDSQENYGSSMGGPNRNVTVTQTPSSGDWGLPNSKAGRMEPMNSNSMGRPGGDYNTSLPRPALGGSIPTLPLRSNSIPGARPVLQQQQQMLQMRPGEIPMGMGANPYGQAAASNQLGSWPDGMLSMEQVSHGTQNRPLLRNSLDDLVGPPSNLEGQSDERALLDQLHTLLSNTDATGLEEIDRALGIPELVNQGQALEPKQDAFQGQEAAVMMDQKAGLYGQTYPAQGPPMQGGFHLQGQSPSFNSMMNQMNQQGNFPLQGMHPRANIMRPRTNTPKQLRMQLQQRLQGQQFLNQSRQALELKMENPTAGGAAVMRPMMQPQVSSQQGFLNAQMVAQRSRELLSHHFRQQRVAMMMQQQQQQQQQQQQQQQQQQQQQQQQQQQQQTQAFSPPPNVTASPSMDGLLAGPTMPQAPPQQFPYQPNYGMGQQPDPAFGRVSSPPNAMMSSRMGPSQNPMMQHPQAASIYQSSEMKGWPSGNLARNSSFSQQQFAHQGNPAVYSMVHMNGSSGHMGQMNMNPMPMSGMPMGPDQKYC

[2] = biological target: Peroxisome proliferator-activated receptor gamma/Nuclear receptor coactivator 2 (Homo sapiens, UniProt P37231); assay: (§1) TR-FRET dose response biochemical High Throughput Screening assay for agonists of the steroid receptor coactivator 2 (SRC-2) recruitment by the peroxisome proliferator-activated receptor gamma (PPAR gamma): non-selective agonists. [Related pubchem assays: 1297, 1032 ]; format: functional
[3] = biological target: Peroxisome proliferator-activated receptor gamma/Nuclear receptor coactivator 1 (Homo sapiens, UniProt P37231); assay: as §1, with “1 (SRC-1)” for “2 (SRC-2)”, “assays (depositor defined):AID1300, AID1808, AID504735, AID631]” for “assays: 1297, 1032 ]”; format: protein assay
SUMO-activating enzyme = SUMO-activating enzyme (Homo sapiens, UniProt Q9UBT2); assay: SUMOylation inhibitor hit validation, confirmation, SUMOylation inhibitor project, biochemical, AlphaScreen (AID 2018); format: functional
Chain of SUMO-activating enzyme (Q9UBE0 whole entry): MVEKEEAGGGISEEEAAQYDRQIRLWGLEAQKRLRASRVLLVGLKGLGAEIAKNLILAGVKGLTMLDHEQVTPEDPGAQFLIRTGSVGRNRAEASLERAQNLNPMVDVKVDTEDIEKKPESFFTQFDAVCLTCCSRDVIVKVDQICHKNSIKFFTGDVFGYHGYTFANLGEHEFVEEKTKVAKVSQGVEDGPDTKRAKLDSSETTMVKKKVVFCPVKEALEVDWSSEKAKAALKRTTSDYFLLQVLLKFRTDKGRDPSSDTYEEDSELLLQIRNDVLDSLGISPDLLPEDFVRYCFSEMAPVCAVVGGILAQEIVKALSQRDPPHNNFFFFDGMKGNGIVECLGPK
Chain of SUMO-activating enzyme (Q9UBT2 whole entry): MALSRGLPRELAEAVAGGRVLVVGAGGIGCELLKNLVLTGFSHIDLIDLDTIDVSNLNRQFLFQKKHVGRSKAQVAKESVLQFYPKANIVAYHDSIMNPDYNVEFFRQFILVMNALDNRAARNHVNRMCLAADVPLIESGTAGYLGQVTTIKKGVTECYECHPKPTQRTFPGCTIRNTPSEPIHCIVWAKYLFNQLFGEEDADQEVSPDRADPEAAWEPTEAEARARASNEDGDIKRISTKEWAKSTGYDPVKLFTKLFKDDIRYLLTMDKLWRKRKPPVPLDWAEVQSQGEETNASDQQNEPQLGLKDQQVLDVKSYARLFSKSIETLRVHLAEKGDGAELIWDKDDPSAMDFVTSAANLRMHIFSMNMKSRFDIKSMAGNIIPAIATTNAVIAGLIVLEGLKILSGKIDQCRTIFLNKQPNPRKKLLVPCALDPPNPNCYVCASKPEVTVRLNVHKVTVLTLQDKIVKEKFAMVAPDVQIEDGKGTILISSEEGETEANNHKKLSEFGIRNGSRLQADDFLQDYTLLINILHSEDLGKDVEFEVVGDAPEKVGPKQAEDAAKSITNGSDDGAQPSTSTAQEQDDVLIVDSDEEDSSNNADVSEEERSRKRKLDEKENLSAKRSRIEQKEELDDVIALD

Coagulation factor XII = biological target: T1, Coagulation factor XII (Homo sapiens, UniProt P00748); format: functional;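 also: activated factor XIIa alpha cleaving a fluorogenic AMC peptide substrate; inhibitor potency from loss of enzyme activity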
T1 sequence (P00748 whole entry): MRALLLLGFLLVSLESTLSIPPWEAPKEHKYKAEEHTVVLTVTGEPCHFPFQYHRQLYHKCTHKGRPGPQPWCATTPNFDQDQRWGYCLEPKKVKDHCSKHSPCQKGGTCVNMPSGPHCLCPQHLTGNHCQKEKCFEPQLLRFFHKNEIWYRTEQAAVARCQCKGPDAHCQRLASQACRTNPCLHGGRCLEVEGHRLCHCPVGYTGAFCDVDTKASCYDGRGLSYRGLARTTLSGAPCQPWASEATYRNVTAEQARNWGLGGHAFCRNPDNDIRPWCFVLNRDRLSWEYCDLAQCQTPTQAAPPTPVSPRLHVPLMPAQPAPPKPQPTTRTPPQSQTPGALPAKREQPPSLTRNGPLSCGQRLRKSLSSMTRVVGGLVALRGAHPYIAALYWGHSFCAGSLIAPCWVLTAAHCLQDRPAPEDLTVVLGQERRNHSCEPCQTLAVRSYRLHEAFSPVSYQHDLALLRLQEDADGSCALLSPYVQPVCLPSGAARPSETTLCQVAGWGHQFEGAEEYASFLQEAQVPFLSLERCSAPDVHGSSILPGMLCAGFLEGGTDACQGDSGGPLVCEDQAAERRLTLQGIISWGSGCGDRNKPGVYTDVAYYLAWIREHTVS

[4] = biological target: Induced myeloid leukemia cell differentiation protein Mcl-1 (Homo sapiens, UniProt Q07820); format: functional
Chain of Induced myeloid leukemia cell differentiation protein Mcl-1 (Q07820 whole entry): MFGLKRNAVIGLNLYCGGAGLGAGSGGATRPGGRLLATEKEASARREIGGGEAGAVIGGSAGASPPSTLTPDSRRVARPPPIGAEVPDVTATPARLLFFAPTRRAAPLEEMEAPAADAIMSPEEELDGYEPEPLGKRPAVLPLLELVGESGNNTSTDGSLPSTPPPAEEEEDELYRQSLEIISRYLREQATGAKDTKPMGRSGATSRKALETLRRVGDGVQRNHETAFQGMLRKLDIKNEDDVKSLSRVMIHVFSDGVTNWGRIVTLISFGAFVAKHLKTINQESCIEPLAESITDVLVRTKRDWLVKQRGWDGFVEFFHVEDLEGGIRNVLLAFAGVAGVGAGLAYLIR

[5] = biological target: Eukaryotic translation initiation factor 4E (Mus musculus, UniProt P63073); assay: eIF4E–eIF4G protein interaction inhibitors, dose response, biochemical, TR-FRET (AID 855); format: functional;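 also: potency for disrupting eIF4E binding to eIF4GI seen as loss of FRET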
Chain of Eukaryotic translation initiation factor 4E (P63073 whole entry): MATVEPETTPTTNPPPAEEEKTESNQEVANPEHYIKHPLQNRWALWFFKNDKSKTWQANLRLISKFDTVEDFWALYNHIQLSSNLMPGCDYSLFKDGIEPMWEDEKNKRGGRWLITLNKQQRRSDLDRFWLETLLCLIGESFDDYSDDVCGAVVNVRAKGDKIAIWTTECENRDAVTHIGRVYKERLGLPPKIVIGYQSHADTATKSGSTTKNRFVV

[6] = biological target: DNA dC->dU-editing enzyme APOBEC-3G (Homo sapiens, UniProt Q9HC16); format: functional;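 also: Dose-response counterscreen measuring inhibition of APOBEC3G DNA deaminase activity, run while confirming APOBEC3A inhibitors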
Chain of DNA dC->dU-editing enzyme APOBEC-3G (Q9HC16 whole entry): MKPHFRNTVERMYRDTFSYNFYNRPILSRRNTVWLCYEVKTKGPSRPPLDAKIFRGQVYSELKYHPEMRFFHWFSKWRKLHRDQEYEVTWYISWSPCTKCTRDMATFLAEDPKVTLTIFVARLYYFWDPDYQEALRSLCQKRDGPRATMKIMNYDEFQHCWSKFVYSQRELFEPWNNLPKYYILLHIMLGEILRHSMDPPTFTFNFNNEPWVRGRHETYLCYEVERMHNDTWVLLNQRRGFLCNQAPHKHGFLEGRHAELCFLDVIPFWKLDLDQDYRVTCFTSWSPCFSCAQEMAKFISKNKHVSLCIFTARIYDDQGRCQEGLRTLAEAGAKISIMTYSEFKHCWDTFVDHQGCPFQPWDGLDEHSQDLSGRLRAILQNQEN

[7] = biological target: DNA dC->dU-editing enzyme APOBEC-3A (Homo sapiens, UniProt P31941); assay: Dose Response confirmation of small molecule APOBEC3A DNA Deaminase Inhibitors via a fluorescence-based single-stranded DNA deaminase assay. [Related pubchem assays (depositor defined):AID493011, AID493024]; format: functional
Chain of DNA dC->dU-editing enzyme APOBEC-3A (P31941 whole entry): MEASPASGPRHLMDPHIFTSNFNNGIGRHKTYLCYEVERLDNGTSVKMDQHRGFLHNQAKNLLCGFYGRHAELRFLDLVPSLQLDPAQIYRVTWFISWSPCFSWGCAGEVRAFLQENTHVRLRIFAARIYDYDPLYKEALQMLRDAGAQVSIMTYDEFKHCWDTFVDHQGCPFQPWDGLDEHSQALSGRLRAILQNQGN

[8] = biological target: T2, Corticotropin-releasing factor receptor 2/Corticotropin-releasing factor-binding protein (Homo sapiens, UniProt P24387+Q13324); assay: activators of CRF receptor 2 with binding protein – uHTS hits, confirmation (AID 602473); format: functional; conditions: read-out: EC50_Mean
T2 sequence (Q13324 whole entry): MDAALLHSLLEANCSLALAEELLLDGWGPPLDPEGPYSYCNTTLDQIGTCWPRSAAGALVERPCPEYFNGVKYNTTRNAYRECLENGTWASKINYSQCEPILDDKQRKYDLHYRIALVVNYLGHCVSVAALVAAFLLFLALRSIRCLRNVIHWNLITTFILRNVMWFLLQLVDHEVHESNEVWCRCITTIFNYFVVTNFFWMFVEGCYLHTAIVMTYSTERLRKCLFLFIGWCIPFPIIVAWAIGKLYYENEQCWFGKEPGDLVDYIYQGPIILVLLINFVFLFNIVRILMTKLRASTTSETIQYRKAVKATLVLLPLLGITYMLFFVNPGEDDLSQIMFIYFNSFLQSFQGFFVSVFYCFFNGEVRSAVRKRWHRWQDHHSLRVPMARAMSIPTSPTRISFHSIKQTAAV
T2 sequence (P24387 whole entry): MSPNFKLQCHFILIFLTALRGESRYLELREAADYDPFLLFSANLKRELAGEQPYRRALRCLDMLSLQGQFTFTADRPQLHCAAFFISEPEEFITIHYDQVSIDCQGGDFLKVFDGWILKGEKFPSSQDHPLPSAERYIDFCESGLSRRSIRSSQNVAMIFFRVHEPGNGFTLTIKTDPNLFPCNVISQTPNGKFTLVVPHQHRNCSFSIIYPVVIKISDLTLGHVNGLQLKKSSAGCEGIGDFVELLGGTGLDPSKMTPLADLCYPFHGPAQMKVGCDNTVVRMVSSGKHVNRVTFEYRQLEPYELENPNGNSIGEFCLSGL

Bcl-2-like protein 10 = biological target: T3, Bcl-2-like protein 10 (Homo sapiens, UniProt Q9HD36); assay: displacers of TR3 peptide from Bcl-B, primary screen, selectivity assay for Bfl-1 inhibitor project, biochemical, fluorescence polarization, FITC-TR3 peptide (AID 748);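 also: fluorescence polarization from a fluorescein-labelled TR3 peptide binding purified Bcl-B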
T3 sequence (Q9HD36 whole entry): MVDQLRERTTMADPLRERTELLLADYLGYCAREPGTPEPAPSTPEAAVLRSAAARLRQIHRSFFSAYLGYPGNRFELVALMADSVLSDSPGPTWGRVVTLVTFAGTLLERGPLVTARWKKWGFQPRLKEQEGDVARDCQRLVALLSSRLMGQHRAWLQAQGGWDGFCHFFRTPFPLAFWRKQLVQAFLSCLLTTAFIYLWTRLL

Estrogen receptor = biological target: T4, Estrogen receptor (Homo sapiens, UniProt P03372);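 also: potency for inhibiting coactivator peptide recruitment to the receptor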
T4 sequence (P03372 whole entry): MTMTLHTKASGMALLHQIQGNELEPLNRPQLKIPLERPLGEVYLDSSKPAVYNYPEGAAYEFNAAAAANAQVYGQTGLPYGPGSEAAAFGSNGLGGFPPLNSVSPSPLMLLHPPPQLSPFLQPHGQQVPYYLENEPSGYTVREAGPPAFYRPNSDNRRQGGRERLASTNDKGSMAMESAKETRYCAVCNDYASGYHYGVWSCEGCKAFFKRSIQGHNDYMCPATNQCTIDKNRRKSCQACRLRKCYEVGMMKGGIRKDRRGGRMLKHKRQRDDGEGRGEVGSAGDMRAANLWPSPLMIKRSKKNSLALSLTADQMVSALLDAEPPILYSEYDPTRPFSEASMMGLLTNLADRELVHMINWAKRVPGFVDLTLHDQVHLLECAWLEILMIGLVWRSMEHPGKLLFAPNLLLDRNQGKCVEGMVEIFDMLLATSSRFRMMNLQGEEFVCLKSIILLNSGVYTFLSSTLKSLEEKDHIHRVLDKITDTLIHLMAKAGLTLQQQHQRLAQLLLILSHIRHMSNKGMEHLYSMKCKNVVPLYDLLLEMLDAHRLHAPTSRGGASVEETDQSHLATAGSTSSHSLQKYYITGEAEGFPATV

EC50 [1]: > 79.4 µM (not active)
EC50 [2]: > 79.4 µM (not active)
EC50 [3]: > 79.4 µM (inactive)
Compound: O=C(Nc1ccc(S(=O)(=O)Nc2ncccn2)cc1)c1ccc(Br)s1

IC50 (SUMO-activating enzyme): 45.3 µM (active)
Compound: CCc1nn(CC(=O)NC(C)CCc2ccccc2)c(=O)c2cc3cc(F)ccc3n12 (stereo not drawn)

IC50 (Coagulation factor XII): > 50 µM (inactive)
Compound: CCc1cccc(CC)c1N(COC)C(=O)Cn1c(CO)nc2ccccc21

IC50 [4]: 35.9 µM (not active)
IC50 [5]: > 64 µM (inactive)
Compound: COc1ccc(NC(C)C(=O)Nc2ccc(C#N)cc2)cc1Cl (stereo not drawn)

Compound: COC(=O)Cn1cc(/C=C/c2cc[n+](C)cc2)c2ccccc21
IC50 [6]: 3.58 µM (active)
IC50 [7]: 3.05 µM (active)
EC50 [8]: 8.34 µM (active)

IC50 (Bcl-2-like protein 10): > 12.5 µM (inactive)
Compound: COC(=O)CNc1c(-c2ccccn2)nc2ccc(Br)cn12

IC50 (Bcl-2-like protein 10): 36.6 µM (active)
IC50 (Estrogen receptor): 5.19 µM (active)
Compound: COc1ccccc1N1CCN(C(=O)c2cc3c(s2)CCC3)CC1

From ChEMBL document CHEMBL1201862, “PubChem BioAssay data set” (2004)
